Reference: ChEMBL document CHEMBL1128704, “(R)-11-hydroxy- and (R)-11-hydroxy-10-methylaporphine: synthesis, pharmacology, and modeling of D2A and 5-HT1A receptor interactions” (J Med Chem, 1995)

Tests used:
[1] = molecular target: T1, 5-hydroxytryptamine receptor 1A (Rattus norvegicus, UniProt P19327); experiment: (§1) Ability to inhibit 5-HT sensitive,forskolin-stimulated adenylyl cyclase(FSC) activity in rat hippocampal membranes mediated through 5-hydroxytryptamine 1A receptor; assay type: functional, cell membranes
T1 sequence (P19327 whole entry): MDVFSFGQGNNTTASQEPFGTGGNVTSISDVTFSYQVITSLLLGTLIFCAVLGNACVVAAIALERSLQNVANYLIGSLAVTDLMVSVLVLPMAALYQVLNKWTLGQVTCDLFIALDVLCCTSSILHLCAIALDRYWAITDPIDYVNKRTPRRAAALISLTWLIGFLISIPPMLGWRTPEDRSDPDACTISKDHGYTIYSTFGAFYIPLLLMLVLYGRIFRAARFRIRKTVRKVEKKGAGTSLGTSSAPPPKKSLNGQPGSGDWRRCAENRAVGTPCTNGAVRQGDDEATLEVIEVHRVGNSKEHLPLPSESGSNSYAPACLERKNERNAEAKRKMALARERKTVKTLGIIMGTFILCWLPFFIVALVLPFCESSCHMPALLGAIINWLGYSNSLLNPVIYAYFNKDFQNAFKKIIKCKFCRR

[2] = molecular target: T2, 5-hydroxytryptamine receptor 1A (Rattus norvegicus) (UniProt P19327); experiment: as §1; assay type: functional, cell membranes; details: concentration not given here
T2 sequence (whole entry): T1 sequence (P19327 whole entry)

[3] = molecular target: T1, 5-hydroxytryptamine receptor 1A; experiment: Ability to displace [3H]8-OH-DPAT binding to rat hippocampal 5-hydroxytryptamine 1A receptor; assay type: tissue-based, Hippocampus
D(2) dopamine receptor = D(2) dopamine receptor (Homo sapiens, UniProt P14416); experiment: Ability to displace [3H]raclopride binding to cloned human Dopamine receptor D2A
D(1A) dopamine receptor = D(1A) dopamine receptor (Rattus norvegicus, UniProt P18901); experiment: Ability to displace [3H]SCH-23390 binding to rat striatal Dopamine receptor D1
Chain of D(1A) dopamine receptor (P18901 whole entry): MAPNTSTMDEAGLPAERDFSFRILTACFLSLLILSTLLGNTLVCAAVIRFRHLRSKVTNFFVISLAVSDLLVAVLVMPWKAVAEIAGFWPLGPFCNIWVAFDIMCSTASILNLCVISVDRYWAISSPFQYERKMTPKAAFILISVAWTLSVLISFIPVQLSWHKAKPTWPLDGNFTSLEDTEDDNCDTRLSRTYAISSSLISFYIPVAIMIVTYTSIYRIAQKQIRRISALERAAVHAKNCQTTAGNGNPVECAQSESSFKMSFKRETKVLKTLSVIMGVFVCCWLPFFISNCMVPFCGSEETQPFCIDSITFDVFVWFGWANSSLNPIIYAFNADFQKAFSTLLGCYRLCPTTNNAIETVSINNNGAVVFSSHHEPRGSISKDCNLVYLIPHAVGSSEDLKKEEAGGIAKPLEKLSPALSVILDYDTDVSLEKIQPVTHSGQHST

Chain of D(2) dopamine receptor (P14416 whole entry): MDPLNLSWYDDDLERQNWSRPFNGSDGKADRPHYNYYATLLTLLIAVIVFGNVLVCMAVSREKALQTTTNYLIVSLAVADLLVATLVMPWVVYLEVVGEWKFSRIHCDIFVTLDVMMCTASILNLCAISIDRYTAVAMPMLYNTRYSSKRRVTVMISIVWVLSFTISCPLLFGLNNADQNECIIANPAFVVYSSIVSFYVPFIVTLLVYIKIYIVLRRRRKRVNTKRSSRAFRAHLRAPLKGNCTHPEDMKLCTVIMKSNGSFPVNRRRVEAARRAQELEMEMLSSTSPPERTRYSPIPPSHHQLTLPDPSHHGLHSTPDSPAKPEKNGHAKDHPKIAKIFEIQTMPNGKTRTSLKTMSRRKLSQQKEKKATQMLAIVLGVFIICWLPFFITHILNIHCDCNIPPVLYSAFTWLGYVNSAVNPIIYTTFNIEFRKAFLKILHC

SMILES	EC50 [1] [nM]	inhibition [2] [%]	Ki [3] [nM]	Ki (D(2) dopamine receptor) [nM]	Ki (D(1A) dopamine receptor) [nM]
CN1CCc2cccc3c2[C@H]1Cc1cccc(O)c1-3	5200	60	9.6	58.5	20.4
Cc1ccc2c(c1O)-c1cccc3c1[C@@H](C2)N(C)CC3	55	102	0.45	1070	382
